According to patent EP4752137A1, “NEW COMPOUNDS DERIVED FROM MORIN, METHOD FOR OBTAINING THEM AND THEIR USES” (Universidad de Sevilla, priority 2023, dated 2025):

Tests used:
[1] = UV-vis absorption spectra (molar extinction coefficient); assay type: physicochemical; conditions: UV-vis 200-500 nm; improvement relative to morin
Excerpt: As experimental evidence of the improvement in the photoprotective capacity of compounds synthesized in Example 1, a comparison was made of the absorption capacity in the UV-vis range between morin and nitrogen derivatives (Schiff bases).
The tangible improvement with chemical modification for the compounds synthesized in Example 1 is evident by comparing the molar extinction coefficient (ε) values. […] In a further analysis, it can be seen that the εmax of morin oxime is 60% better than that of morin, and εmax of morin semicarbazone is 40% better than that of morin. […] Therefore, an improvement can be achieved in the optimization of active ingredients used in the preparation of compositions, the purpose of which is directed towards photoprotection and a photoabsorbent flavonoid is contemplated in said formulation.

[2] = ABTS antioxidant capacity, Trolox curve as reference control; assay type: biochemical; conditions: ABTS technique
Method: First, the antioxidant capacity of the compounds was determined directly using the ABTS technique (2,2-azino-bis-3-benzo-thiazoline-6-sulfonic acid) at different concentrations of the compounds (morin and the compounds of Example 1), using as a reference control a curve of increasing concentrations of Trolox. […] Table 1. Antioxidant capacity of compounds

IL-6 (Interleukin-6) = assay: IL-6 production by ELISA in UVB-irradiated HaCaT keratinocytes; assay type: cell-based; conditions: for reduced IL-6 levels: 10 µM (highest concentration tested), 4 h pretreatment, UVB 50 mJ/cm^2, 24 h incubation
Method: For the evaluation of anti-inflammatory activity (Figure 2), HaCaT keratinocytes were pretreated for 4 h with the compounds morin (A), morin oxime obtained in Example 1 (B) and morin semicarbazone obtained in Example 1 (C) (2.5, 5 and 10 µM). They were then irradiated with UVB radiation at 50 mJ/cm^2, incubated for 24 h and IL-6 (Interleukin-6) production was assessed by ELISA. Results were expressed as pg/mL and bars represent ± SEM (n=5). […] Thus, it is worth noting that at the highest concentration tested (10 µM), morin oxime reduced IL-6 levels by 45% (Figure 2B) and morin semicarbazone by 28% (Figure 2C), compared to morin, with which a decrease of only 16% was observed (Figure 2A).
Finally, the combination of morin or the morin semicarbazone derivative from Example 1 with fucoxanthin induced a decrease in IL-6 production at all concentrations tested in a 1:1 proportion. It is worth mentioning that this reduction was more notable with the fucoxanthin+morin semicarbazone mixture at the 5-5 µM and 10-10 µM combinations (42% reduction) (Figure 6C) than with fucoxanthin+morin (38% reduction) (Figure 6B). […] The results were expressed as a percentage with respect to the irradiated control cells and the bars represented mean ± SEM (n = 4).

[3] = Solubility of the isolated crystals; assay type: physicochemical; conditions: solvents in words
Method: For the preparation of morin oxime, 0.03 g of morin dissolved in 5 mL of MeOH were used, 0.0206 g of hydroxylamine hydrochloride and 0.0206 g of sodium acetate were added. The mixture was left under constant stirring and reflux for 2.5 hours. After this time, the crude product of the reaction was tempered and poured onto wet ice generating a precipitate, which was washed with dichloromethane and methanol obtaining a yellow solid in 60% yield. […] 6.45 dd (J = 8.5; 2.1 Hz). 6.39 d (J = 2.1 Hz). 6.34 d (J = 1.9 Hz). 6.16 d (J = 1.9 Hz). NMR of ^13C δ 102.9. 122.0. 122.0. 144.3. 149.1. 149.4. 152.8. 153.1. 154.7. 155.9. 84.5. 89.5. 95.5. 95.5. 99.5. UV (EtOH) λmax (log ε) 210 (4.6). 265 (4.2). 390 (4.4). The preparation of the compound can be carried out using the above-mentioned method with 0.1 g of morin, 0.07 g of hydroxylamine hydrochloride and 0.07 g of sodium acetate.
For the preparation of morin semicarbazone, 0.03 g of morin dissolved in 5 mL of MeOH was used, 0.0332 g of semicarbazide hydrochloride and 0.0332 g of sodium acetate were added. The mixture was left under constant stirring and reflux for 3 hours. After this time, the crude product of the reaction was tempered and poured onto wet ice generating a precipitate, which was recovered by filtration obtaining a coffee solid in 76% yield. […] 10.71 sa. 9.77 sa. 7.22 d (J= 8.4 Hz). 6.37 d (J= 2.4 Hz). 6.33 dd (J= 8.4; 2.4 Hz). 6.28 d (J= 1.9 Hz). […]

ROS = assay: Intracellular ROS (dichlorodihydrofluorescein-diacetate technique) in UVB-irradiated HaCaT cells; assay type: cell-based
Method: For the evaluation of the antioxidant activity of morin semicarbazone obtained in Example 1, HaCaT cells were pre-treated with morin and semicarbazone at the selected concentrations for 4 h and then irradiated with UVB radiation at 50 mJ/cm^2. After 45 min, ROS levels were measured using the dichlorodihydrofluorescein-diacetate technique. […] The results were expressed as a percentage with respect to the irradiated cell control and the bars represented mean ± SEM (n=4).
This decrease was slightly greater with the fucoxanthin+morin semicarbazone mixture at the 1.25-1.25 µM and 2.5-2.5 µM combinations (41% reduction) (Figure 5C) than with fucoxanthin+morin (33% and 37% reduction, respectively) (Figure 5B). […] The results were expressed as a percentage with respect to the irradiated control cells and the bars represented mean ± SEM (n = 4).

[4] = fucoxanthin alone, highest concentration tested

Compound | εmax better than that of morin [1] | EC50 [2] | Trolox equivalency (EC50 sample/EC 50 Trolox) [2] | reduced IL-6 levels (IL-6 (Interleukin-6)) | solubility [3] | reduced ROS production (ROS; 10 µM, 4 h pretreatment, UVB 50 mJ/cm^2, 45 min, vs irradiated cell control) | ROS levels (result in words) (ROS; all concentrations tested, 4 h pretreatment, UVB 50 mJ/cm^2, 45 min) | IL-6 production reduction (IL-6 (Interleukin-6); [4]) | ROS reduction (ROS; [4])
Cc1c(C)c2c(c(C)c1O)CCC(C)(C(=O)O)O2 (stereo not shown) [Trolox, reference compound] |  | 20.8 ± 0.811 µM | 1 |  |  |  |  |  | 
fucoxanthin [reference compound] |  |  |  |  |  |  |  | 30% | 34%

Now from value to compound, other results behind:

εmax better than that of morin [1] | EC50 [2] | Trolox equivalency (EC50 sample/EC 50 Trolox) [2] | Compound | reduced IL-6 levels (IL-6 (Interleukin-6)) | solubility [3] | reduced ROS production (ROS; 10 µM, 4 h pretreatment, UVB 50 mJ/cm^2, 45 min, vs irradiated cell control) | ROS levels (result in words) (ROS; all concentrations tested, 4 h pretreatment, UVB 50 mJ/cm^2, 45 min) | IL-6 production reduction (IL-6 (Interleukin-6); [4]) | ROS reduction (ROS; [4])
60% | 13.7 ± 0.768 µM | 0.658 | ON=c1c(O)c(-c2ccc(O)cc2O)oc2cc(O)cc(O)c12 [Morin oxime, 2-(2,4-dihydroxyphenyl)-3,5,7-trihydroxy-4H-chromen-4-one oxime] | 45% | soluble in AcOEt, acetone, MeOH, and partially soluble in water |  |  |  | 
40% | 12.3 ± 0.922 µM | 0.590 | NC(=O)NN=c1c(O)c(-c2ccc(O)cc2O)oc2cc(O)cc(O)c12 [Morin semicarbazone, 2-(2-(2,4-dihydroxyphenyl)-3,5,7-trihydroxy-4H-chromen-4-ylidene)hydrazine-1-carboxamide] | 28% | solubility in AcOEt, acetone, MeOH | up to 20% |  |  | 
 | 10.8 ± 2.21 µM | 0.517 | O=c1c(O)c(-c2ccc(O)cc2O)oc2cc(O)cc(O)c12 [Morin, 2-(2,4-dihydroxyphenyl)-3,5,7-trihydroxy-4H-chromen-4-one] | 16% |  |  | failed to reduce ROS levels at any of the concentrations tested |  | 
